Reference: ChEMBL document CHEMBL4308841, “Synthesis, in vitro antiproliferative activity, and kinase inhibitory effects of pyrazole-containing diarylureas and diarylamides” (Eur J Med Chem, 2018)

Columns and labels:
HCC 2998 = test: Growth inhibition of human HCC2998 cells incubated for 48 hrs by sulforhodamine B assay; assay type: functional, cell-based; conditions: HCC 2998, 48 h
U-251 = test: Growth inhibition of human U251 cells assessed as cell growth at 0.1 uM incubated for 48 hrs by sulforhodamine B assay relative to control; assay type: functional; conditions: U-251, 48 h, read-out: Activity
OVCAR-5 = test: Growth inhibition of human OVCAR5 cells incubated for 48 hrs by sulforhodamine B assay; assay type: functional, cell-based; conditions: OVCAR-5, 48 h
SK-MEL-2 [1] = test: Growth inhibition of human SK-MEL-2 cells assessed as cell growth at 100 uM incubated for 48 hrs by sulforhodamine B assay relative to control; assay type: functional; conditions: SK-MEL-2, 48 h, read-out: Activity
NCI-H23 = test: Growth inhibition of human NCI-H23 cells incubated for 48 hrs by sulforhodamine B assay; assay type: functional, cell-based; conditions: NCI-H23, 48 h
A549 [2] = test: Growth inhibition of human A549/ATCC cells assessed as cell growth at 1 uM incubated for 48 hrs by sulforhodamine B assay relative to control; assay type: functional; conditions: A549, 48 h, read-out: Activity
NCI-H322M = test: Growth inhibition of human NCI-H322M cells assessed as cell growth at 1 uM incubated for 48 hrs by sulforhodamine B assay relative to control; assay type: functional; conditions: read-out: Activity
PC-3 [3] = test: Growth inhibition of human PC3 cells assessed as cell growth at 0.1 uM incubated for 48 hrs by sulforhodamine B assay relative to control; assay type: functional; conditions: PC-3, 48 h, read-out: Activity
SK-MEL-5 [4] = test: Growth inhibition of human SK-MEL-5 cells assessed as cell growth at 0.1 uM incubated for 48 hrs by sulforhodamine B assay relative to control; assay type: functional; conditions: SK-MEL-5, 48 h, read-out: Activity
SK-MEL-28 = test: Growth inhibition of human SK-MEL-28 cells assessed as cell growth at 100 uM incubated for 48 hrs by sulforhodamine B assay relative to control; assay type: functional; conditions: SK-MEL-28, 48 h, read-out: Activity
PC-3 [5] = test: Growth inhibition of human PC3 cells assessed as cell growth at 0.01 uM incubated for 48 hrs by sulforhodamine B assay relative to control; assay type: functional; conditions: PC-3, 48 h, read-out: Activity
MDA-MB-435 = test: Growth inhibition of human MDA-MB-435 cells assessed as cell growth at 100 uM incubated for 48 hrs by sulforhodamine B assay relative to control; assay type: functional; conditions: MDA-MB-435, 48 h, read-out: Activity
SK-MEL-2 [6] = test: Growth inhibition of human SK-MEL-2 cells assessed as cell growth at 0.1 uM incubated for 48 hrs by sulforhodamine B assay relative to control; assay type: functional; conditions: SK-MEL-2, 48 h, read-out: Activity
MDA-MB-468 = test: Growth inhibition of human MDA-MB-468 cells assessed as cell growth at 0.1 uM incubated for 48 hrs by sulforhodamine B assay relative to control; assay type: functional; conditions: MDA-MB-468, 48 h, read-out: Activity
BT-549 = test: Growth inhibition of human BT549 cells incubated for 48 hrs by sulforhodamine B assay; assay type: functional, cell-based; conditions: BT-549, 48 h
NCI-H522 = test: Growth inhibition of human NCI-H522 cells assessed as cell growth at 1 uM incubated for 48 hrs by sulforhodamine B assay relative to control; assay type: functional; conditions: NCI-H522, 48 h, read-out: Activity
LOX IMVI = test: Growth inhibition of human LOXIMVI cells assessed as cell growth at 0.01 uM incubated for 48 hrs by sulforhodamine B assay relative to control; assay type: functional; conditions: read-out: Activity
SN12C = test: Growth inhibition of human SN12C cells assessed as cell growth at 0.01 uM incubated for 48 hrs by sulforhodamine B assay relative to control; assay type: functional; conditions: read-out: Activity
UACC-62 = test: Growth inhibition of human UACC62 cells incubated for 48 hrs by sulforhodamine B assay; assay type: functional, cell-based; conditions: UACC-62, 48 h
IGROV-1 = test: Growth inhibition of human IGROV1 cells assessed as cell growth at 1 uM incubated for 48 hrs by sulforhodamine B assay relative to control; assay type: functional; conditions: IGROV-1, 48 h, read-out: Activity
HL-60(TB) = test: Growth inhibition of human HL-60(TB) cells assessed as cell growth at 0.01 uM incubated for 48 hrs by sulforhodamine B assay relative to control; assay type: functional; conditions: HL-60, 48 h, read-out: Activity
SR [7] = test: Growth inhibition of human SR cells assessed as cell growth at 1 uM incubated for 48 hrs by sulforhodamine B assay relative to control; assay type: functional; conditions: read-out: Activity
HT-29 = test: Growth inhibition of human HT-29 cells assessed as cell growth at 0.01 uM incubated for 48 hrs by sulforhodamine B assay relative to control; assay type: functional; conditions: HT-29, 48 h, read-out: Activity
SK-MEL-5 [8] = test: Growth inhibition of human SK-MEL-5 cells assessed as cell growth at 0.01 uM incubated for 48 hrs by sulforhodamine B assay relative to control; assay type: functional; conditions: SK-MEL-5, 48 h, read-out: Activity
A549 [9] = test: Growth inhibition of human A549/ATCC cells assessed as cell growth at 0.01 uM incubated for 48 hrs by sulforhodamine B assay relative to control; assay type: functional; conditions: A549, 48 h, read-out: Activity
UACC-257 = test: Growth inhibition of human UACC257 cells assessed as cell growth at 1 uM incubated for 48 hrs by sulforhodamine B assay relative to control; assay type: functional; conditions: UACC-257, 48 h, read-out: Activity
HOP-62 = test: Growth inhibition of human HOP62 cells assessed as cell growth at 100 uM incubated for 48 hrs by sulforhodamine B assay relative to control; assay type: functional; conditions: HOP-62, 48 h, read-out: Activity
786-0 = test: Growth inhibition of human 786-0 cells assessed as cell growth at 100 uM incubated for 48 hrs by sulforhodamine B assay relative to control; assay type: functional; conditions: 786-0, 48 h, read-out: Activity
PC-3 [10] = test: Growth inhibition of human PC3 cells assessed as cell growth at 1 uM incubated for 48 hrs by sulforhodamine B assay relative to control; assay type: functional; conditions: PC-3, 48 h, read-out: Activity
MCF7 = test: Growth inhibition of human MCF7 cells assessed as cell growth at 100 uM incubated for 48 hrs by sulforhodamine B assay relative to control; assay type: functional; conditions: MCF7, 48 h, read-out: Activity
SR [11] = test: Growth inhibition of human SR cells assessed as cell growth at 0.01 uM incubated for 48 hrs by sulforhodamine B assay relative to control; assay type: functional; conditions: read-out: Activity
[12] = read-out: LC50 (the source's name)
[13] = read-out: pLC50 (the source's name) (converted)

Which results are given for `O=C(Nc1cccc(-n2cc(-c3ccncc3)c(-c3cc(O)cc(Cl)c3)n2)c1)Nc1ccc(Cl)c(Cl)c1`?
GI50 (HCC 2998; read-out: GI50): 2930 nM; CC50 (HCC 2998; [12]): 7.51 µM; TGI (HCC 2998; read-out: TGI): 89.9 µM; GI50 (HCC 2998; read-out: pGI50 (converted)): 2950 nM; CC50 (HCC 2998; [13]): 77.6 µM; TGI (HCC 2998; read-out: pTGI (converted)): 8.91 µM; growth at 0.1 µM (U-251): 93%; GI50 (OVCAR-5; read-out: GI50): 2140 nM; CC50 (OVCAR-5; [12]): 5.42 µM; TGI (OVCAR-5; read-out: TGI): 51.6 µM; GI50 (OVCAR-5; read-out: pGI50 (converted)): 2140 nM; CC50 (OVCAR-5; [13]): 53.7 µM; TGI (OVCAR-5; read-out: pTGI (converted)): 6.17 µM; growth at 100 µM (SK-MEL-2 [1]): -52%; GI50 (NCI-H23; read-out: GI50): 2410 nM; LC50 (NCI-H23; read-out: LC50): > 100 µM; TGI (NCI-H23; read-out: TGI): 62.9 µM; GI50 (NCI-H23; read-out: pGI50 (converted)): 2400 nM; LC50 (NCI-H23; read-out: pLC50 (converted)): > 100 µM; TGI (NCI-H23; read-out: pTGI (converted)): 5.01 µM; growth at 1 µM (A549 [2]): 75%; growth at 1 µM (NCI-H322M): 59%; growth at 0.1 µM (PC-3 [3]): 90%; growth at 0.1 µM (SK-MEL-5 [4]): 92%; growth at 100 µM (SK-MEL-28): -52%; growth at 0.01 µM (PC-3 [5]): 90%; growth at 100 µM (MDA-MB-435): -45%; growth at 0.1 µM (SK-MEL-2 [6]): 96%; growth at 0.1 µM (MDA-MB-468): 85%; GI50 (BT-549; read-out: GI50): 2060 nM; CC50 (BT-549; [12]): > 100 µM; TGI (BT-549; read-out: TGI): 52.2 µM; GI50 (BT-549; read-out: pGI50 (converted)): 2040 nM; CC50 (BT-549; [13]): > 100 µM; TGI (BT-549; read-out: pTGI (converted)): 5.25 µM; growth at 1 µM (NCI-H522): 54%; growth at 0.01 µM (LOX IMVI): 106%; growth at 0.01 µM (SN12C): 100%; IC50 (UACC-62): 1690 nM; GI50 (UACC-62; read-out: GI50): 1590 nM; CC50 (UACC-62; [12]): 5.38 µM; TGI (UACC-62; read-out: TGI): 37.6 µM; GI50 (UACC-62; read-out: pGI50 (converted)): 1700 nM; CC50 (UACC-62; [13]): 8.32 µM; TGI (UACC-62; read-out: pTGI (converted)): 3.72 µM; growth at 1 µM (IGROV-1): 95%; growth at 0.01 µM (HL-60(TB)): 93%; growth at 1 µM (SR [7]): 62%; growth at 0.01 µM (HT-29): 91%; growth at 0.01 µM (SK-MEL-5 [8]): 95%; growth at 0.01 µM (A549 [9]): 96%; growth at 1 µM (UACC-257): 92%; growth at 100 µM (HOP-62): -3%; growth at 100 µM (786-0): -58%; growth at 1 µM (PC-3 [10]): 72%; growth at 100 µM (MCF7): -2%; growth at 0.01 µM (SR [11]): 57%
